According to ChEMBL document CHEMBL3102783, “Structural studies, homology modeling and molecular docking of novel non-competitive antagonists of GluK1/GluK2 receptors” (Bioorg Med Chem, 2014):

Key:
[1] = molecular target: T1, Glutamate receptor ionotropic, kainate 1 (Homo sapiens, UniProt P39086); assay: Displacement of [3H]-kainate from GluK1 receptor (unknown origin)
[2] = molecular target: T2, Glutamate receptor ionotropic, kainate 2 (Homo sapiens, UniProt Q13002); assay: Displacement of [3H]-kainate from GluK2 receptor (unknown origin)
T2 sequence (Q13002 whole entry): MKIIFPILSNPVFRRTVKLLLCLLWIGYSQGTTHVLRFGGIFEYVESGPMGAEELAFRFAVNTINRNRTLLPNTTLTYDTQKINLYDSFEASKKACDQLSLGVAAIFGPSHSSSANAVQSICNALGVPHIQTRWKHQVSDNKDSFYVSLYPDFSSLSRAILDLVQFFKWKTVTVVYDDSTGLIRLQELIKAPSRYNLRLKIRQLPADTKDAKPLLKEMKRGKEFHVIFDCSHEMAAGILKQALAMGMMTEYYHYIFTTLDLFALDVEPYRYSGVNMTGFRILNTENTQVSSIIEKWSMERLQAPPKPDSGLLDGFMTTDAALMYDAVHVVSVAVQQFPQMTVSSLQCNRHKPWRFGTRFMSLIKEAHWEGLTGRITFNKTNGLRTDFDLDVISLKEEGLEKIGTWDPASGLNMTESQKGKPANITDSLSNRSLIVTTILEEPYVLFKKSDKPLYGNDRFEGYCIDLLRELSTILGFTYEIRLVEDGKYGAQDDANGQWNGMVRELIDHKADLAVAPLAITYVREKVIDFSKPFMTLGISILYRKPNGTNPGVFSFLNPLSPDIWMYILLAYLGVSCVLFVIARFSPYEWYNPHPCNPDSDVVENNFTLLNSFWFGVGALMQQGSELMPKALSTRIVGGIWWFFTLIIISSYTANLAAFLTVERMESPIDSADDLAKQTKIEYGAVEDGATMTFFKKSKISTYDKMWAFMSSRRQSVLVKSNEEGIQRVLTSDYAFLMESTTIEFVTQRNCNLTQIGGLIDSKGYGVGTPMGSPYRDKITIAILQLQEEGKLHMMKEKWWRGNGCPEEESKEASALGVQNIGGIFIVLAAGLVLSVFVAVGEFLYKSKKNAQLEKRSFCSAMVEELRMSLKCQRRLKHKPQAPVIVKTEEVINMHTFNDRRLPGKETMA

[3] = molecular target: T1, Glutamate receptor ionotropic, kainate 1; assay: Displacement of [3H]-kainate from GluK1 receptor (unknown origin) at 100 uM
[4] = molecular target: T2, Glutamate receptor ionotropic, kainate 2; assay: Displacement of [3H]-kainate from GluK2 receptor (unknown origin) at 100 uM

T1 sequence (P39086 whole entry): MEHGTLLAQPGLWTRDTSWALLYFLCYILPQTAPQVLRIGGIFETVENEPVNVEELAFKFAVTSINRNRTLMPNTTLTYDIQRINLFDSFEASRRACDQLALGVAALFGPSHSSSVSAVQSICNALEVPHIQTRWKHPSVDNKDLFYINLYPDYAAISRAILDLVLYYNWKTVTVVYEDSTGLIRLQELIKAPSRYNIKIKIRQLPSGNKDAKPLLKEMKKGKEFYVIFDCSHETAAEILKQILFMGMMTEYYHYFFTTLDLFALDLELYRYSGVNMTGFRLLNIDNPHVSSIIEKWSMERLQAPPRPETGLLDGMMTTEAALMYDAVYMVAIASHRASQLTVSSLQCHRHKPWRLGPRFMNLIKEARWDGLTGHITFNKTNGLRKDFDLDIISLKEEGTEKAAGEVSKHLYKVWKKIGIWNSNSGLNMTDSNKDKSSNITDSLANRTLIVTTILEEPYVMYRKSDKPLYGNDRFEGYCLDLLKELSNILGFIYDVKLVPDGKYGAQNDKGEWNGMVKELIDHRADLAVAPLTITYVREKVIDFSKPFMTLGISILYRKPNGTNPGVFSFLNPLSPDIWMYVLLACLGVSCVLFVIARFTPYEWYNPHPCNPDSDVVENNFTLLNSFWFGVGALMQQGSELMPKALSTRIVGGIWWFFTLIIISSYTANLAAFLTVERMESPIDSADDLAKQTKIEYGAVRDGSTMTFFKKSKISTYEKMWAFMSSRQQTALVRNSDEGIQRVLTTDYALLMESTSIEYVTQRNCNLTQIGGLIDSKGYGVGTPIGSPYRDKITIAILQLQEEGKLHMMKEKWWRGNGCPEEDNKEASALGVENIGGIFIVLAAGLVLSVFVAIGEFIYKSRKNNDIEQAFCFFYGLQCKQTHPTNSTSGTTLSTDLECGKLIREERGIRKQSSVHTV

Structure (SMILES) | IC50 [1] [µM] | IC50 [2] [µM] | inhibition [3] [%] | inhibition [4] [%]
CCn1c(-c2ccccc2)cc2cc(OC)ccc21 | 12 | 6.7 |  | 
CCn1c(-c2ccc(OC)cc2)c(C)c2ccccc21 |  | 10 | 32 | 
COc1ccc(-c2c(C)c3cc(OC)ccc3n2Cc2ccc(Cl)cc2)cc1 |  |  | 0 | 20

Results, then the compound that gave them:

IC50 [1] [µM] | IC50 [2] [µM] | inhibition [3] [%] | inhibition [4] [%] | Structure (SMILES)
 |  | 0 | 1 | CCn1c2c(c3cc(OC)ccc31)CCc1ccccc1-2
 | 6 | 32 |  | CCn1c(-c2ccccc2)c(C)c2cc(OC)ccc21
4 | 0.7 |  |  | CCn1c(-c2ccc(OC)cc2)c(C)c2cc(OC)ccc21
